The values that follow are results of earlier work, collected in patent US6465018B1, “Dietary supplement for increasing energy, strength, and immune function” (priority 1997, dated 2002).

Structures are written as SMILES.

The data set relates to individuals told to avoid physical exercise. The conditions noted are these: daily dosage of 3 grams.

On to `CN(CC(=O)O)C(=N)N` [creatine monohydrate], for which the intracellular creatine concentrations entry is “raised intracellular creatine concentrations to effective levels”.
